Results from the supplement of paper PMC10307832.

How the values were obtained:
Assay in all cases: relative viability (nuclei count vs DMSO), 5 days (fraction); higher = more cells survive
Bortezomib + Vorinostat = compound: CC(C)C[C@H](NC(=O)[C@H](Cc1ccccc1)NC(=O)c1cnccn1)B(O)O [Bortezomib] + O=C(CCCCCCC(=O)Nc1ccccc1)NO [Vorinostat] (partner 1 µM)
Method in brief: (§1)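 Lung cancer cell lines were seeded in 1536-well plates and dosed by pin tool the next day, with either a single drug or a fixed anchor-drug dose combined with five library-drug doses (not always all listed) spaced in √10 steps. Five days later, one step fixed the cells and stained their nuclei (final 0.05% Triton X-100, 1% formaldehyde, 1 ug/ml Hoechst), and nuclei were counted on 4× images. Relative viability is the nuclei count in treated wells divided by the count in vehicle wells, and each value is the median of duplicate plates.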

[1] = compound: CC1=CC(=NN1)NC2=CC(=NC(=N2)/C=C/C3=CC=CC=C3)N4CCN(CC4)C + CS(=O)(=O)CCNCc1ccc(-c2ccc3ncnc(Nc4ccc(OCc5cccc(F)c5)c(Cl)c4)c3c2)o1 [Lapatinib] (partner 2 µM)
Method in brief: as §1

[2] = compound: CC1=CC(=NN1)NC2=CC(=NC(=N2)/C=C/C3=CC=CC=C3)N4CCN(CC4)C + C[C@]1(O)C[C@@H](c2nc(-c3ccc4ccc(-c5ccccc5)nc4c3)c3c(N)nccn32)C1 [Linsitinib] (partner 1 µM)
Method in brief: as §1

Obatoclax + Phenformin = compound: COC1=CC(c2cc3ccccc3[nH]2)=N/C1=C\c1[nH]c(C)cc1C [Obatoclax] + N=C(N)NC(=N)NCCc1ccccc1 [Phenformin] (partner 250 µM)
Method in brief: as §1

| Cell Line | relative viability (Bortezomib + Vorinostat; first compound 0.0002 µM) | relative viability (Bortezomib + Vorinostat; first compound 0.000632 µM) | relative viability (Bortezomib + Vorinostat; first compound 0.002 µM) | relative viability (Bortezomib + Vorinostat; first compound 0.006325 µM) | relative viability (Bortezomib + Vorinostat; first compound 0.02 µM) | relative viability ([1]; first compound 0.08 µM) | relative viability ([1]; first compound 0.253 µM) | relative viability ([1]; first compound 0.8 µM) | relative viability ([1]; first compound 2.53 µM) | relative viability ([1]; first compound 8 µM) | relative viability ([2]; first compound 0.08 µM) | relative viability ([2]; first compound 0.253 µM) | relative viability ([2]; first compound 0.8 µM) | relative viability ([2]; first compound 2.53 µM) | relative viability ([2]; first compound 8 µM) | relative viability (Obatoclax + Phenformin; first compound 0.01 µM) | relative viability (Obatoclax + Phenformin; first compound 0.03162 µM) | relative viability (Obatoclax + Phenformin; first compound 0.1 µM) | relative viability (Obatoclax + Phenformin; first compound 0.3162 µM) | relative viability (Obatoclax + Phenformin; first compound 1 µM) |
| --- | --- | --- | --- | --- | --- | --- | --- | --- | --- | --- | --- | --- | --- | --- | --- | --- | --- | --- | --- | --- |
| HCC-44 | 1.07 | 1.07 | 1.1 | 0.557 | 0.328 | 1.02 | 1.07 | 0.955 | 0.85 | 0.101 | 0.64 | 0.755 | 0.659 | 0.235 | 0.201 | 0.268 | 0.185 | 0.0802 | 0.14 | 0.111 |
| PC-3 [JPC-3] | 0.675 | 0.82 | 0.444 | 0.22 | 0.203 | 0.445 | 0.46 | 0.466 | 0.408 | 0.368 | 1.01 | 1.02 | 0.918 | 0.95 | 0.814 | 0.477 | 0.486 | 0.511 | 0.473 | 0.489 |
| NCI-H1993 | 0.894 | 0.987 | 0.605 | 0.258 | 0.266 | 0.76 | – | 0.772 | 0.605 | 0.561 | 0.842 | – | 0.617 | 0.594 | 0.55 | 0.481 | 0.537 | 0.531 | 0.478 | 0.48 |
| LOU-NH91 | 0.88 | 0.816 | 0.413 | 0.313 | 0.359 | 0.669 | 0.785 | 0.698 | 0.567 | 0.333 | 0.953 | 1.01 | 0.98 | 0.775 | 0.501 | 0.716 | 0.657 | 0.499 | 0.403 | 0.432 |
| SK-MES-1 | 1.08 | 1.1 | 1 | 0.164 | 0.158 | 0.44 | 0.52 | 0.453 | 0.329 | 0.146 | 1.06 | 1.04 | 0.939 | 0.796 | 0.146 | 0.642 | 0.704 | 0.558 | 0.361 | 0.273 |
| LCLC-103H | 0.791 | 0.773 | 0.827 | 0.359 | 0.236 | – | – | – | – | – | 1.16 | 1.09 | 1.13 | 1.12 | 0.809 | 0.317 | 0.28 | 0.327 | 0.321 | 0.34 |
| NCI-H1915 | 0.514 | 0.531 | 0.555 | 0.286 | 0.0313 | 0.972 | 1.01 | 0.954 | 0.453 | 0.514 | 1.1 | 1.1 | 1.03 | 0.815 | 0.569 | 0.361 | 0.362 | 0.337 | 0.363 | 0.343 |
| IA-LM | 0.955 | 0.788 | 0.806 | 0.674 | 0.008 | – | 0.885 | 0.961 | 0.638 | 0.113 | 0.561 | 0.61 | 0.878 | 0.752 | 0.729 | – | – | – | – | – |
| NCI-H2170 | 0.746 | 0.722 | 0.972 | 0.173 | 0.121 | 0.277 | 0.255 | 0.244 | 0.199 | 0.166 | – | – | – | – | – | 0.362 | 0.414 | 0.396 | 0.419 | 0.437 |
| Calu-6 | – | – | – | – | – | 0.93 | 0.966 | 0.793 | 0.195 | 0.137 | 0.98 | 0.997 | 0.883 | 0.441 | 0.158 | – | – | – | – | – |
| NCI-H1650 | 0.575 | 0.58 | 0.151 | 0.139 | 0.155 | 0.775 | 0.739 | 0.946 | 0.109 | 0.0756 | – | – | – | – | – | 0.429 | 0.427 | 0.494 | 0.449 | 0.295 |
| NCI-H1648 | 0.295 | 0.395 | 0.268 | 0.264 | 0.241 | – | – | – | – | – | – | – | – | – | – | – | – | – | – | – |
| NCI-H1623 | – | – | – | – | – | – | – | – | – | – | – | – | – | – | – | 0.626 | 0.578 | 0.515 | 0.598 | 0.568 |
| NCI-H1299 | – | – | – | – | – | 0.955 | 0.977 | 0.982 | 0.685 | 0.257 | 0.986 | 0.967 | 1.03 | 0.754 | 0.295 | – | – | – | – | – |
| NCI-H522 | 0.824 | 0.818 | 0.976 | 0.446 | 0.334 | – | – | – | – | – | – | – | – | – | – | 0.614 | 0.62 | 0.633 | 0.688 | 0.603 |
| NCI-H2342 | 1.01 | 0.789 | 0.838 | 0.748 | 0.627 | – | – | – | – | – | – | – | – | – | – | 0.744 | 0.573 | 0.737 | 0.48 | 0.584 |
| SW 900 | 0.482 | 0.54 | 0.163 | 0.169 | 0.173 | – | – | – | – | – | – | – | – | – | – | 0.556 | 0.584 | 0.726 | 0.493 | 0.325 |
| NCI-H1703 | – | – | – | – | – | 1.11 | 0.975 | 0.373 | 0.177 | 0.167 | 0.67 | 0.466 | 1.06 | 0.148 | 0.0677 | – | – | – | – | – |
| ChaGo-K-1 | 0.709 | 0.753 | 0.827 | 0.441 | 0.162 | – | – | – | – | – | – | – | – | – | – | 0.511 | 0.506 | 0.444 | 0.462 | 0.527 |
